Assay: mn = molality of the nth substance listed, in mol/kg
Conditions: 350 kPa, Liquid, Extra sensitive DSC

C1COCCOCCOCCOCCOCCO1 [1,4,7,10,13,16-hexaoxacyclooctadecane] + O
Conditions | apparent molar heat capacity [J/K/mol]
338.15 K, m1 = 0.01001 | 925.2
338.15 K, m1 = 0.02001 | 920.5
338.15 K, m1 = 0.03002 | 920.9
338.15 K, m1 = 0.0401 | 927.9
338.15 K, m1 = 0.04995 | 928.1
338.15 K, m1 = 0.06015 | 927.8
338.15 K, m1 = 0.08002 | 927.2
338.15 K, m1 = 0.1224 | 926.44
338.15 K, m1 = 0.1472 | 926.89
338.15 K, m1 = 0.1935 | 925.61
338.15 K, m1 = 0.2925 | 924.48
343.15 K, m1 = 0.01001 | 932.5
343.15 K, m1 = 0.02001 | 929.1
343.15 K, m1 = 0.03002 | 929.3
343.15 K, m1 = 0.0401 | 936.1
343.15 K, m1 = 0.04995 | 936.3
343.15 K, m1 = 0.06015 | 936.3
343.15 K, m1 = 0.08002 | 935.5
343.15 K, m1 = 0.1224 | 934.88
343.15 K, m1 = 0.1472 | 935.27
343.15 K, m1 = 0.1935 | 934.03
343.15 K, m1 = 0.2925 | 932.93
348.15 K, m1 = 0.01001 | 939.9
348.15 K, m1 = 0.02001 | 936.3
348.15 K, m1 = 0.03002 | 936.4
348.15 K, m1 = 0.0401 | 942.7
348.15 K, m1 = 0.04995 | 943.1
348.15 K, m1 = 0.06015 | 943.5
348.15 K, m1 = 0.08002 | 942.4
348.15 K, m1 = 0.1224 | 941.88
348.15 K, m1 = 0.1472 | 942.17
348.15 K, m1 = 0.1935 | 941.03
348.15 K, m1 = 0.2925 | 939.88
353.15 K, m1 = 0.01001 | 946.2
353.15 K, m1 = 0.02001 | 942
353.15 K, m1 = 0.03002 | 942.4
353.15 K, m1 = 0.0401 | 949
353.15 K, m1 = 0.04995 | 949.2
353.15 K, m1 = 0.06015 | 949
353.15 K, m1 = 0.08002 | 948.1
353.15 K, m1 = 0.1224 | 947.6
353.15 K, m1 = 0.1472 | 947.8
353.15 K, m1 = 0.1935 | 946.84
353.15 K, m1 = 0.2925 | 945.53
358.15 K, m1 = 0.01001 | 951.4
358.15 K, m1 = 0.02001 | 946.9
358.15 K, m1 = 0.03002 | 947.4
358.15 K, m1 = 0.0401 | 954.1
358.15 K, m1 = 0.04995 | 954
358.15 K, m1 = 0.06015 | 953.6
358.15 K, m1 = 0.08002 | 952.9
358.15 K, m1 = 0.1224 | 952.29
358.15 K, m1 = 0.1472 | 952.42
358.15 K, m1 = 0.1935 | 951.41
358.15 K, m1 = 0.2925 | 949.82
363.15 K, m1 = 0.01001 | 956.3
363.15 K, m1 = 0.02001 | 950.6
363.15 K, m1 = 0.03002 | 951.5
363.15 K, m1 = 0.0401 | 957.7
363.15 K, m1 = 0.04995 | 957.7
363.15 K, m1 = 0.06015 | 957.3
363.15 K, m1 = 0.08002 | 956.5
363.15 K, m1 = 0.1224 | 955.71
363.15 K, m1 = 0.1472 | 955.85
363.15 K, m1 = 0.1935 | 954.72
363.15 K, m1 = 0.2925 | 952.93
368.15 K, m1 = 0.01001 | 958.6
368.15 K, m1 = 0.02001 | 953.5
368.15 K, m1 = 0.03002 | 954.4
368.15 K, m1 = 0.0401 | 959.7
368.15 K, m1 = 0.04995 | 960.2
368.15 K, m1 = 0.06015 | 959.9
368.15 K, m1 = 0.08002 | 959.2
368.15 K, m1 = 0.1224 | 958.26
368.15 K, m1 = 0.1472 | 958.12
368.15 K, m1 = 0.1935 | 957
368.15 K, m1 = 0.2925 | 954.88
373.15 K, m1 = 0.01001 | 959.1
373.15 K, m1 = 0.02001 | 955.6
373.15 K, m1 = 0.03002 | 955.9
373.15 K, m1 = 0.0401 | 960.6
373.15 K, m1 = 0.04995 | 961.7
373.15 K, m1 = 0.06015 | 961.5
373.15 K, m1 = 0.08002 | 960.8
373.15 K, m1 = 0.1224 | 959.82
373.15 K, m1 = 0.1472 | 959.52
373.15 K, m1 = 0.1935 | 958.21
373.15 K, m1 = 0.2925 | 955.86
378.15 K, m1 = 0.01001 | 960.1
378.15 K, m1 = 0.02001 | 955.9
378.15 K, m1 = 0.03002 | 957.7
378.15 K, m1 = 0.0401 | 960.8
378.15 K, m1 = 0.04995 | 962.6
378.15 K, m1 = 0.06015 | 962.6
378.15 K, m1 = 0.08002 | 961.5
378.15 K, m1 = 0.1224 | 960.5
378.15 K, m1 = 0.1472 | 960.13
378.15 K, m1 = 0.1935 | 958.64
378.15 K, m1 = 0.2925 | 956.01
383.15 K, m1 = 0.01001 | 960.3
383.15 K, m1 = 0.02001 | 956.3
383.15 K, m1 = 0.03002 | 959.2
383.15 K, m1 = 0.0401 | 959.6
383.15 K, m1 = 0.04995 | 962.7
383.15 K, m1 = 0.06015 | 962.5
383.15 K, m1 = 0.08002 | 961.5
383.15 K, m1 = 0.1224 | 960.35
383.15 K, m1 = 0.1472 | 959.95
383.15 K, m1 = 0.1935 | 958.25
383.15 K, m1 = 0.2925 | 955.31
388.15 K, m1 = 0.01001 | 958.8
388.15 K, m1 = 0.02001 | 955.7
388.15 K, m1 = 0.03002 | 959.9
388.15 K, m1 = 0.0401 | 956.7
388.15 K, m1 = 0.04995 | 962.3
388.15 K, m1 = 0.06015 | 961.8
388.15 K, m1 = 0.08002 | 960.8
388.15 K, m1 = 0.1224 | 959.65
388.15 K, m1 = 0.1472 | 959.06
388.15 K, m1 = 0.1935 | 957.22
388.15 K, m1 = 0.2925 | 954.17
393.15 K, m1 = 0.01001 | 958.8
393.15 K, m1 = 0.02001 | 954.7
393.15 K, m1 = 0.03002 | 967.1
393.15 K, m1 = 0.0401 | 951.9
393.15 K, m1 = 0.04995 | 961.7
393.15 K, m1 = 0.06015 | 961.2
393.15 K, m1 = 0.08002 | 960.2
393.15 K, m1 = 0.1224 | 958.56
393.15 K, m1 = 0.1472 | 957.61
393.15 K, m1 = 0.1935 | 955.72
393.15 K, m1 = 0.2925 | 952.32

Reference: the NIST ThermoML archive (doi:10.1016/j.jct.2004.07.027)
